Measured values from patent US9169224B2, “Piperazinyl and piperidinyl ureas as modulators of fatty acid amide hydrolase” (Janssen Pharmaceutica NV, priority 2004, dated 2015).
Where a name gives a salt, the structure may show the parent alone.

Molecular target: FAAH (Homo sapiens (Human), UniProt O00519)
Assay: Assay Method 1: FAAH assay, T84 cell homogenate, 3H-anandamide hydrolysis
Type: biochemical
Settings: 3H-AEA tracer 200 nM, 1 h at rt
Method: T84 frozen pellets (contents of 1-4×15 cm culture dishes) were homogenized in 300 mL of FAAH assay buffer (125 mM Tris, 1 mM EDTA, 0.2% glycerol, 0.02% Triton X-100, 0.4 mM Hepes, pH 9). The assay mixture was prepared from 50 μL of the cell homogenate, 10 μL of the test compound, and 40 μL of anandamide [1-3H-ethanolamine] (^3H-AEA; Perkin-Elmer, 10.3 Ci/mmol), which was added last, for a final tracer concentration of 200 nM. The reaction mixture was incubated at rt for 1 hour (h). During the incubation, 96-well Multiscreen filter plates (catalog number MAFCNOB50; Millipore, Bedford, Mass., USA) were loaded with 25 μL of activated charcoal (Multiscreen column loader, catalog number MACL09625, Millipore) and washed once with 100 μL of MeOH. Also during the incubation, 96-well DYNEX MicroLite plates (catalog number NL510410) were loaded with 100 μL of MicroScint40 (catalog number 6013641, Packard Bioscience, Meriden, Conn., USA). After the 1 h incubation, 60 μL of the reaction mixture were transferred to the charcoal plates, which were then assembled on top of the DYNEX plates using Centrifuge Alignment Frames (catalog number MACF09604, Millipore). The unbound, labeled ethanolamine was centrifuged through to the bottom plate (5 min at 2000 rpm), which was preloaded with the scintillant, as described above. The plates were sealed and left at rt for 1 h before counting on a Hewlett Packard TopCount.

FAAH, sequence (O00519 whole entry): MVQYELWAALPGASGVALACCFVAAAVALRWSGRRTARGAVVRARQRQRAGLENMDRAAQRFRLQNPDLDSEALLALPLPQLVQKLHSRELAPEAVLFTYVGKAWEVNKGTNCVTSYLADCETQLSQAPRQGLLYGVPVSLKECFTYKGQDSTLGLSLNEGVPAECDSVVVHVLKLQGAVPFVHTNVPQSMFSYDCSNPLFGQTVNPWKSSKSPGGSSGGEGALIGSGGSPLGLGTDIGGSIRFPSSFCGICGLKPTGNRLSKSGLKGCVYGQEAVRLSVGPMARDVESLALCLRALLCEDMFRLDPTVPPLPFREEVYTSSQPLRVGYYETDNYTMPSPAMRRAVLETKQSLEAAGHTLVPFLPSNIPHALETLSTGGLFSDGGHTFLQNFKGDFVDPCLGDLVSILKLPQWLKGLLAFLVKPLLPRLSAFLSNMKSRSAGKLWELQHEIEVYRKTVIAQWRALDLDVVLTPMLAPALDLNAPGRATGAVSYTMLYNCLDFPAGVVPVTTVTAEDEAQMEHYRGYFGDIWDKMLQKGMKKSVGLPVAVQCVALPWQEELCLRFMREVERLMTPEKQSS

Row | Structure (SMILES) | IC50
1 | O=C(Nc1ccccc1)N1CCN(Cc2cc3ccccc3c3ccccc23)CC1 [Example 67, 4-Phenanthren-9-ylmethyl-piperazine-1-carboxylic acid phenylamide] | 8000 nM
2 | O=C(Nc1ccccc1)N1CCN(Cc2cc3ccccc3nc2Cl)CC1 [Example 56, 4-(2-Chloro-quinolin-3-ylmethyl)-piperazine-1-carboxylic acid phenylamide] | 9000 nM
3 | O=C(Nc1ccccc1)N1CCN(Cc2cccc(OCCN3CCCCC3)c2)CC1 [Example 126, 4-[3-(2-Piperidin-1-yl-ethoxy)-benzyl]-piperazine-1-carboxylic acid phenylamide] | 2000 nM
4 | Cc1cc(CN2CCN(C(=O)Nc3ccccc3)CC2)c(C)n1-c1cccc(C(F)(F)F)c1 [Example 83, 4-[2,5-Dimethyl-1-(3-trifluoromethyl-phenyl)-1H-pyrrol-3-ylmethyl]-piperazine-1-carboxylic acid phenylamide] | 480 nM
5 | O=C(Nc1cccc(Cl)c1)N1CCN(Cc2cnc3ccccc3c2)CC1 [Example 100, 4-Quinolin-3-ylmethyl-piperazine-1-carboxylic acid (3-chloro-phenyl)-amide] | 200 nM
6 | O=C(Nc1ccccc1)N1CCN(Cc2cccc(-c3ccccc3)c2)CC1 [Example 70, 4-Biphenyl-3-ylmethyl-piperazine-1-carboxylic acid phenylamide] | 410 nM
7 | CC(C)COc1ccc(CN2CCN(C(=O)Nc3ccccc3)CC2)cc1 [Example 124, 4-(4-Isobutoxy-benzyl)-piperazine-1-carboxylic acid phenylamide] | 1800 nM
8 | Cc1cccc2cc(CN3CCN(C(=O)Nc4ccccc4)CC3)c(Cl)nc12 [Example 75, 4-(2-Chloro-8-methyl-quinolin-3-ylmethyl)-piperazine-1-carboxylic acid phenylamide] | 24 nM
9 | O=C(Nc1ccccc1)N1CCN(Cc2ccccc2OCc2ccccc2)CC1 [Example K, 4-(2-Benzyloxy-benzyl)-piperazine-1-carboxylic acid phenylamide, reference compound] | > 10000 nM
10 | COc1ccc(NC(=O)N2CCN(Cc3ccc(Br)c(Br)c3)CC2)cc1 [Example 90, 4-(3,4-Dibromo-benzyl)-piperazine-1-carboxylic acid (4-methoxy-phenyl)-amide] | 75 nM
11 | O=C(Nc1ccccc1)N1CCN(Cc2cccc(OS(=O)(=O)c3ccc(Cl)cc3)c2)CC1 [Example 139, 4-Chloro-benzenesulfonic acid 3-(4-phenylcarbamoyl-piperazin-1-ylmethyl)-phenyl ester] | 380 nM
12 | O=C(Nc1ccccc1Cl)N1CCC(Cc2ccccc2)CC1 [Example 115, 4-Benzyl-piperidine-1-carboxylic acid (2-chloro-phenyl)-amide] | 4000 nM
13 | COc1cccc(NC(=O)N2CCN(Cc3ccc(Br)c(Br)c3)CC2)c1 [Example 87, 4-(3,4-Dibromo-benzyl)-piperazine-1-carboxylic acid (3-methoxy-phenyl)-amide] | 48 nM
14 | CCOc1ccc(CN2CCN(C(=O)Nc3ccccc3)CC2)cc1 [Example 129, 4-(4-Ethoxy-benzyl)-piperazine-1-carboxylic acid phenylamide] | 2000 nM
15 | O=C(Nc1ccccc1)N1CCN(Cc2ccc3cc(Cl)ccc3n2)CC1 [Example 54, 4-(6-Chloro-quinolin-2-ylmethyl)-piperazine-1-carboxylic acid phenylamide] | 170 nM
16 | O=C(Nc1ccccc1)N1CCN(Cc2cccc(OCc3ccccc3)c2)CC1 [Example 25, 4-(3-Benzyloxy-benzyl)-piperazine-1-carboxylic acid phenylamide] | 57 nM
17 | CC(C)COc1cccc(CN2CCN(C(=O)Nc3ccccc3)CC2)c1 [Example 121, 4-(3-Isobutoxy-benzyl)-piperazine-1-carboxylic acid phenylamide] | 210 nM
18 | O=C(Nc1ccccc1)N1CCN(C2CCc3cc(Br)ccc3C2)CC1 (centres unmarked) [Example L, 4-(6-Bromo-1,2,3,4-tetrahydro-naphthalen-2-yl)-piperazine-1-carboxylic acid phenylamide, reference compound] | 370 nM
19 | Cn1ccc2ccc(CN3CCN(C(=O)Nc4ccccc4)CC3)cc21 [Example 76, 4-(1-Methyl-1H-indol-6-ylmethyl)-piperazine-1-carboxylic acid phenylamide] | 350 nM
20 | O=C(Nc1ccccc1)N1CCN(Cc2ccncc2)CC1 [Example 45, 4-Pyridin-4-ylmethyl-piperazine-1-carboxylic acid phenylamide] | > 10000 nM

Row | Structure (SMILES) | IC50
21 | Cc1ccccc1NC(=O)N1CCN(Cc2ccc(Br)c(Br)c2)CC1 [Example 96, 4-(3,4-Dibromo-benzyl)-piperazine-1-carboxylic acid o-tolylamide] | > 10000 nM
22 | Cn1ccc2cc(CN3CCN(C(=O)Nc4ccccc4)CC3)ccc21 [Example 53, 4-(1-Methyl-1H-indol-5-ylmethyl)-piperazine-1-carboxylic acid phenylamide] | 230 nM
23 | O=C(Nc1ccccc1)N1CCN(Cc2cccc(Oc3ccc(Cl)cc3)c2)CC1 [Example 60, 4-[3-(4-Chloro-phenoxy)-benzyl]-piperazine-1-carboxylic acid phenylamide] | 9 nM
24 | CN(C)CCOc1cccc(CN2CCN(C(=O)Nc3ccccc3)CC2)c1 [Example 125, 4-[3-(2-Dimethylamino-ethoxy)-benzyl]-piperazine-1-carboxylic acid phenylamide] | 10000 nM
25 | O=C(Nc1ccccc1)N1CCN(Cc2ccc3c(c2)CCC3)CC1 [Example 30, 4-Indan-5-ylmethyl-piperazine-1-carboxylic acid phenylamide] | 180 nM
26 | O=C(Nc1ccc(F)cc1)N1CCN(Cc2ccc(Br)c(Br)c2)CC1 [Example 86, 4-(3,4-Dibromo-benzyl)-piperazine-1-carboxylic acid (4-fluoro-phenyl)-amide] | 21 nM
27 | O=C(Nc1ccccc1)N1CCN(Cc2cccc(Br)n2)CC1 [Example 71, 4-(6-Bromo-pyridin-2-ylmethyl)-piperazine-1-carboxylic acid phenylamide] | 6000 nM
28 | CS(=O)(=O)Oc1cccc(CN2CCN(C(=O)Nc3ccccc3)CC2)c1 [Example 137, Methanesulfonic acid 3-(4-phenylcarbamoyl-piperazin-1-ylmethyl)-phenyl ester] | 1000 nM
29 | O=C(Nc1ccccc1)N1CCN(Cc2ccc(Oc3ccccc3)cc2)CC1 [Example 74, 4-(4-Phenoxy-benzyl)-piperazine-1-carboxylic acid phenylamide] | 2000 nM
30 | O=C(Nc1ccccc1)N1CCN(Cc2ccccn2)CC1 [Example 46, 4-Pyridin-2-ylmethyl-piperazine-1-carboxylic acid phenylamide] | > 10000 nM
31 | COc1cccc(CN2CCN(C(=O)Nc3ccccc3)CC2)c1 [Example 39, 4-(3-Methoxy-benzyl)-piperazine-1-carboxylic acid phenylamide] | 1100 nM
32 | Cc1cccc(NC(=O)N2CCC(Cc3ccccc3)CC2)c1 [Example 114, 4-Benzyl-piperidine-1-carboxylic acid m-tolylamide] | 2300 nM
33 | CCOc1cccc(CN2CCN(C(=O)Nc3ccccc3)CC2)c1 [Example 122, 4-(3-Ethoxy-benzyl)-piperazine-1-carboxylic acid phenylamide] | 220 nM
34 | O=C(Nc1ccccc1)N1CCN(Cc2cccc(Oc3cccc(C(F)(F)F)c3)c2)CC1 [Example 64, 4-[3-(3-Trifluoromethyl-phenoxy)-benzyl]-piperazine-1-carboxylic acid phenylamide] | 220 nM
35 | O=C(Nc1ccccc1)N1CCN(Cc2ccc3cc[nH]c3c2)CC1 [Example 73, 4-(1H-Indol-6-ylmethyl)-piperazine-1-carboxylic acid phenylamide] | 29 nM
36 | O=C(Nc1ccccc1)N1CCN(Cc2cccc(Oc3ccc4ccccc4c3)c2)CC1 [Example 131, 4-[3-(Naphthalen-2-yloxy)-benzyl]-piperazine-1-carboxylic acid phenylamide] | 33 nM
37 | CCn1c2ccccc2c2cc(CN3CCN(C(=O)Nc4ccccc4)CC3)ccc21 [Example 80, 4-(9-Ethyl-9H-carbazol-3-ylmethyl)-piperazine-1-carboxylic acid phenylamide] | 330 nM
38 | Cc1ccc(Oc2cccc(CN3CCN(C(=O)Nc4ccccc4)CC3)c2)cc1 [Example 62, 4-(3-p-Tolyloxy-benzyl)-piperazine-1-carboxylic acid phenylamide] | 18 nM
39 | O=C(Nc1ccccc1)N1CCN(Cc2ccc(-c3ccccc3)cc2)CC1 [Example 49, 4-Biphenyl-4-ylmethyl-piperazine-1-carboxylic acid phenylamide] | 4500 nM

Same assay, conditions: 3H-AEA tracer 200 nM, 1 h at rt, hydrochloride

Row | Structure (SMILES) | IC50
40 | COc1cc(Br)cc(CN2CCN(C(=O)Nc3ccccc3)CC2)c1O [Example 161, 4-(5-Bromo-2-hydroxy-3-methoxy-benzyl)-piperazine-1-carboxylic acid phenylamide hydrochloride] | 210 nM
41 | O=C(Nc1ccccc1)N1CCN(Cc2ccc3c(c2)OCO3)CC1 [Example B1, 4-Benzo[1,3]dioxol-5-ylmethyl-piperazine-1-carboxylic acid phenylamide hydrochloride, reference compound] | 1200 nM
